Results published in ChEMBL document CHEMBL1201862, “PubChem BioAssay data set” (2004).
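All cell lines were grown in 96-well plates and treated with compound for 48 hours. The concentration for 50% growth inhibition is given as GI50.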 Calls of active or inactive are those of the source. No stated cut-off is given here; in the data, active = GI50 up to about 1.1 µM and inactive = higher.

Experiments:
Assay in all cases: NCI-60 cell line screen, 48 h
K562 = tested on: K562
SF-295 = tested on: SF-295
HOP-62 = tested on: HOP-62
A549 = tested on: A549
NCI-H226 = tested on: NCI-H226
SF-539 = tested on: SF-539
SN12C = tested on: SN12C
NCI/ADR-RES = tested on: NCI/ADR-RES
UO-31 = tested on: UO-31
SNB-19 = tested on: SNB-19
MDA-N = tested on: MDA-N
MDA-MB-435 = tested on: MDA-MB-435
OVCAR-5 = tested on: OVCAR-5
MCF7 = tested on: MCF7
SR = tested on: SR
T47D = tested on: T47D
UACC-257 = tested on: UACC-257
Hs-578T = tested on: Hs-578T
NCI-H460 = tested on: NCI-H460
RXF 393 = tested on: RXF 393
SK-MEL-2 = tested on: SK-MEL-2
SK-MEL-5 = tested on: SK-MEL-5
CCRF-CEM = tested on: CCRF-CEM
BT-549 = tested on: BT-549
OVCAR-4 = tested on: OVCAR-4
MOLT-4 = tested on: MOLT-4
EKVX = tested on: EKVX
PC-3 = tested on: PC-3
HL-60 = tested on: HL-60
Malme-3M = tested on: Malme-3M
HT-29 = tested on: HT-29
COLO 205 = tested on: COLO 205
SK-OV-3 = tested on: SK-OV-3
HCT-116 = tested on: HCT-116
SW-620 = tested on: SW-620
CAKI-1 = tested on: CAKI-1
ACHN = tested on: ACHN
SF-268 = tested on: SF-268
HCT-15 = tested on: HCT-15
OVCAR-8 = tested on: OVCAR-8
TK-10 = tested on: TK-10
NCI-H23 = tested on: NCI-H23
LOX IMVI = tested on: LOX IMVI
786-0 = tested on: 786-0
MDA-MB-231 = tested on: MDA-MB-231
DU-145 = tested on: DU-145
KM12 = tested on: KM12
SK-MEL-28 = tested on: SK-MEL-28
IGROV-1 = tested on: IGROV-1
RPMI-8226 = tested on: RPMI-8226
M14 = tested on: M14
A498 = tested on: A498
OVCAR-3 = tested on: OVCAR-3
UACC-62 = tested on: UACC-62
SNB-75 = tested on: SNB-75
U-251 = tested on: U-251
HCC 2998 = tested on: HCC 2998
NCI-H522 = tested on: NCI-H522

SMILES: COC(=O)/C=C(\S/C(=C(/c1ccc(OC)cc1)n1cc(C(=O)OC)c(C(=O)OC)n1)c1ccc(OC)cc1)C(=O)OC
- GI50 (K562): 6.5 µM (inactive)
- GI50 (SF-295): > 100 µM (inactive)
- GI50 (HOP-62): 44.9 µM (inactive)
- GI50 (A549): 77.6 µM (inactive)
- GI50 (NCI-H226): 48.6 µM (inactive)
- GI50 (SF-539): 21.6 µM (inactive)
- GI50 (SN12C): 15.5 µM (inactive)
- GI50 (NCI/ADR-RES): 28.7 µM (inactive)
- GI50 (UO-31): 4.14 µM (inactive)
- GI50 (SNB-19): 51.8 µM (inactive)
- GI50 (MDA-N): 19.6 µM (inactive)
- GI50 (MDA-MB-435): 16.7 µM (inactive)
- GI50 (OVCAR-5): 27.1 µM (inactive)
- GI50 (MCF7): 5.62 µM (inactive)
- GI50 (SR): 2.77 µM (inactive)
- GI50 (T47D): 3.02 µM (inactive)
- GI50 (UACC-257): 8.49 µM (inactive)
- GI50 (Hs-578T): 47.9 µM (inactive)
- GI50 (NCI-H460): 35.9 µM (inactive)
- GI50 (RXF 393): 12.6 µM (inactive)
- GI50 (SK-MEL-2): 32.6 µM (inactive)
- GI50 (SK-MEL-5): 35.5 µM (inactive)
- GI50 (CCRF-CEM): 0.399 µM (active)
- GI50 (BT-549): 65.3 µM (inactive)
- GI50 (OVCAR-4): 19.4 µM (inactive)
- GI50 (MOLT-4): 2.78 µM (inactive)
- GI50 (EKVX): 21.6 µM (inactive)
- GI50 (PC-3): 26.6 µM (inactive)
- GI50 (HL-60): 2.7 µM (inactive)
- GI50 (Malme-3M): 13.7 µM (inactive)
- GI50 (HT-29): 8.04 µM (inactive)
- GI50 (COLO 205): 3.01 µM (inactive)
- GI50 (SK-OV-3): > 100 µM (inactive)
- GI50 (HCT-116): 9.98 µM (inactive)
- GI50 (SW-620): 7.06 µM (inactive)
- GI50 (CAKI-1): 2.58 µM (inactive)
- GI50 (ACHN): 5.13 µM (inactive)
- GI50 (SF-268): 17.1 µM (inactive)
- GI50 (HCT-15): 6.43 µM
- GI50 (OVCAR-8): 2.11 µM (inactive)
- GI50 (TK-10): 4.33 µM (inactive)
- GI50 (NCI-H23): 37.2 µM (inactive)
- GI50 (LOX IMVI): 9.35 µM (inactive)
- GI50 (786-0): 5.36 µM (inactive)
- GI50 (MDA-MB-231): > 100 µM (inactive)
- GI50 (DU-145): 15.6 µM (inactive)
- GI50 (KM12): 76.2 µM (inactive)
- GI50 (SK-MEL-28): 3.08 µM (inactive)
- GI50 (IGROV-1): 6.4 µM (inactive)
- GI50 (RPMI-8226): 38.3 µM (inactive)
- GI50 (M14): 21.6 µM (inactive)
- GI50 (A498): > 100 µM (inactive)
- GI50 (OVCAR-3): 3.42 µM (inactive)
- GI50 (UACC-62): 34.9 µM (inactive)
- GI50 (SNB-75): 55.1 µM (inactive)
- GI50 (U-251): 33.6 µM (inactive)

SMILES: CN(C)CCNC(=O)c1cc([N+](=O)[O-])cn1C
- GI50 (K562): > 100 µM (inactive)
- GI50 (SF-295): > 100 µM (inactive)
- GI50 (HOP-62): > 100 µM (inactive)
- GI50 (A549): > 100 µM (inactive)
- GI50 (NCI-H226): > 100 µM (inactive)
- GI50 (SF-539): > 100 µM (inactive)
- GI50 (SN12C): > 100 µM (inactive)
- GI50 (UO-31): > 100 µM (inactive)
- GI50 (SNB-19): > 100 µM (inactive)
- GI50 (MDA-N): > 100 µM (inactive)
- GI50 (HCC 2998): > 100 µM (inactive)
- GI50 (MDA-MB-435): > 100 µM (inactive)
- GI50 (OVCAR-5): > 100 µM (inactive)
- GI50 (MCF7): > 100 µM (inactive)
- GI50 (SR): > 100 µM (inactive)
- GI50 (T47D): > 100 µM (inactive)
- GI50 (UACC-257): > 100 µM (inactive)
- GI50 (Hs-578T): > 100 µM (inactive)
- GI50 (NCI-H460): > 100 µM (inactive)
- GI50 (RXF 393): > 100 µM (inactive)
- GI50 (SK-MEL-2): > 100 µM (inactive)
- GI50 (SK-MEL-5): > 100 µM (inactive)
- GI50 (CCRF-CEM): > 100 µM (inactive)
- GI50 (BT-549): > 100 µM (inactive)
- GI50 (OVCAR-4): > 100 µM (inactive)
- GI50 (MOLT-4): > 100 µM (inactive)
- GI50 (EKVX): > 100 µM (inactive)
- GI50 (PC-3): > 100 µM (inactive)
- GI50 (HL-60): > 100 µM (inactive)
- GI50 (Malme-3M): > 100 µM (inactive)
- GI50 (HT-29): > 100 µM (inactive)
- GI50 (COLO 205): > 100 µM (inactive)
- GI50 (SK-OV-3): > 100 µM (inactive)
- GI50 (HCT-116): > 100 µM (inactive)
- GI50 (SW-620): > 100 µM (inactive)
- GI50 (CAKI-1): > 100 µM (inactive)
- GI50 (ACHN): > 100 µM (inactive)
- GI50 (SF-268): > 100 µM (inactive)
- GI50 (HCT-15): > 100 µM
- GI50 (OVCAR-8): > 100 µM (inactive)
- GI50 (TK-10): > 100 µM (inactive)
- GI50 (NCI-H23): > 100 µM (inactive)
- GI50 (LOX IMVI): > 100 µM (inactive)
- GI50 (786-0): > 100 µM (inactive)
- GI50 (MDA-MB-231): > 100 µM (inactive)
- GI50 (DU-145): > 100 µM (inactive)
- GI50 (KM12): > 100 µM (inactive)
- GI50 (NCI-H522): > 100 µM (inactive)
- GI50 (SK-MEL-28): > 100 µM (inactive)
- GI50 (IGROV-1): > 100 µM (inactive)
- GI50 (RPMI-8226): > 100 µM (inactive)
- GI50 (M14): > 100 µM (inactive)
- GI50 (A498): > 100 µM (inactive)
- GI50 (OVCAR-3): > 100 µM (inactive)
- GI50 (UACC-62): > 100 µM (inactive)
- GI50 (SNB-75): > 100 µM (inactive)
- GI50 (U-251): > 100 µM (inactive)
